Values quoted from earlier work in patent US20220304972A1, “COMBINATION THERAPY AND BIOMARKER INDICATING EFFICACY THEREOF” (Sumitomo Dainippon Pharma Co., Ltd., priority 2019, published 2022).
Read-outs that look alike come from different tables or passages of the source.

Test system: CRC patients

atezolizumab: anti-PD-L1 antibody, binds to PD-L1
ORR (MSS CRC, N=90 (2/90), Bendell et al. 2018, NCT02788279): 2.2%

nivolumab: anti-PD-1 antibody, binds to PD-1
ORR (CRC, N=14 (1/14), Brahmer 2010): 7 | ORR (Refractory CRC, N=19, Topialan et al. 2012, NCT00730639): 0

pembrolizumab: anti-PD-1 antibody, binds to PD-1
ORR (MSS CRC, N=18, Le et al. 2015, NCT01876511): 0 | ORR (PD-1 positive MSS CRC, N=22, O' Neil et al. 2017, NCT02054806): 0
